From patent publication US8691815B2, “Substituted oxindole derivatives, drugs containing said derivatives and the use thereof” (AbbVie Deutschland GmbH & Co. KG, priority 2005, dated 2014)
Counter-ions that a name gives are not always drawn.

The compounds below were run against T1, human vasopressin V1b receptor (Homo sapiens, UniProt P47901) (assay: Vasopressin V1b receptor binding assay). Settings: membranes from CHO-K1 cells with stably expressed human V1b receptors, displacement of 1.5 nM 3H-AVP.
T1 construct: expressed in transfected cells; host or cells: CHO-K1 (cell line hV1b-3H2_CHO), membrane preparation
T1 sequence (P47901 1-424): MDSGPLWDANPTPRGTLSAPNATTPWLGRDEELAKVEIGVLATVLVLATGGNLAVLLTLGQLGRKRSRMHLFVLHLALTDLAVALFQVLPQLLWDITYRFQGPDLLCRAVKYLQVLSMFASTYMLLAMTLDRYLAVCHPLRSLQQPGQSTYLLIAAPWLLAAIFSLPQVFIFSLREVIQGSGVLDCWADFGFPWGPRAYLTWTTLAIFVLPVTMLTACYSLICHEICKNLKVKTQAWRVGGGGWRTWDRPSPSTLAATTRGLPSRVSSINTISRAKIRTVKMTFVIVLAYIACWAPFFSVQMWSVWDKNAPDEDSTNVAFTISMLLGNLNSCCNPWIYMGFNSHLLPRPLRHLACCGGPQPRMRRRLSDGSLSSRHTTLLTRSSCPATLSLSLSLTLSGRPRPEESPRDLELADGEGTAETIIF
Procedure: Vasopressin V1b Receptor Binding Assay:
The test substances were dissolved in a concentration of 10^−2 M in DMSO (dimethyl sulfoxide) and further diluted to 5×10^−4 M to 5×10^−9 M in DMSO. This series of DMSO predilutions was diluted 1:10 with assay buffer. The substance concentration was again diluted 1:5 in the assay mixture (2% DMSO in the mixture).
The membrane pellet was again homogenized and centrifuged as described and then taken up in 50 mM Tris-HCl, pH 7.4, homogenized and stored in aliquots frozen in liquid nitrogen at −190° C.
The incubation buffer was: 50 mM Tris, 10 mM MgCl2, 0.1% BSA, pH 7.4.
The nonspecific binding was determined with 1 uM AVP (Bachem # H1780). All determinations were carried out as triplicate determinations. After incubation (60 minutes at room temperature), the free radioligand was removed by vacuum filtration (Skatron cell harvester 7000) through Whatman GF/B glass fiber filter mats, and the filters were transferred into scintillation vials. The liquid scintillation measurement took place in a Tricarb model 2000 or 2200CA instrument (Packard). Conversion of the measured cpm into dpm was carried out with the aid of a standard quench series.
The binding parameters were calculated by nonlinear regression in SAS.

Compared with `COc1cc(CN2CCCC2)ccc1C1(N2CCC[C@H]2C(=O)N(C)C)C(=O)N(S(=O)(=O)c2ccc(F)cc2)c2ccc(Cl)cc21` (stereo partly drawn) [Example 3, (S)-1-[5-Chloro-1-(4-fluorobenzenesulfonyl)-3-(2-methoxy-4-pyrrolidin-1-ylmethyl-phenyl)-2-oxo-2,3-dihydro-1H-indol-3-yl]pyrrolidine-2-dimethylcarboxamide, trifluoroacetic acid salt], `COc1cc(CN2CCCC2)ccc1C1(N2CCC[C@H]2C(=O)N(C)C)C(=O)N(S(=O)(=O)c2ccc(C#N)cc2)c2ccc(Cl)cc21` (stereo partly drawn) [Example 5, (S)-1-[5-Chloro-1-(4-cyanobenzenesulfonyl)-3-(2-methoxy-4-pyrrolidin-1-ylmethyl-phenyl)-2-oxo-2,3-dihydro-1H-indol-3-yl]pyrrolidine-2-dimethylcarboxamide, trifluoroacetic acid salt] is lower in Ki: 1 to 10 nM for the first, < 1 nM for the second. The second binds more tightly here.

`COCCN(C)Cc1ccc(OC)c(C2(N3CCC[C@H]3C(=O)N(C)C)C(=O)N(S(=O)(=O)c3ccc(OC)cc3OC)c3ccc(Cl)cc32)c1` (stereo partly drawn) [Example 33, (S)-1-[5-Chloro-1-(2,4-dimethoxybenzenesulfonyl)-3-(2-methoxy-5-{[(2-methoxy-ethyl)methylamino]methyl}phenyl)-2-oxo-2,3-dihydro-1H-indol-3-yl]pyrrolidine-2-dimethylcarboxamide, trifluoroacetic acid salt] and `COc1ccc(S(=O)(=O)N2C(=O)C(c3cc(CN(C)C)ccc3OC)(N3CCC[C@H]3C(=O)N(C)C)c3cc(Cl)ccc32)c(OC)c1` (stereo partly drawn) [Example 24, (S)-1-[5-Chloro-1-(2,4-dimethoxybenzenesulfonyl)-3-(5-dimethylaminomethyl-2-methoxyphenyl)-2-oxo-2,3-dihydro-1H-indol-3-yl]pyrrolidine-2-dimethylcarboxamide, trifluoroacetic acid salt] cannot be ordered by Ki: < 1 nM for the first, < 1 nM for the second.

Compared with `COc1ccc(S(=O)(=O)N2C(=O)C(c3ccc(CN(C)C)cc3OC)(N3CCC[C@H]3C(=O)N(C)C)c3cc(Cl)ccc32)c(OC)c1` (stereo partly drawn) [Example 7, (S)-1-[5-Chloro-1-(2,4-dimethoxybenzenesulfonyl)-3-(4-dimethylaminomethyl-2-methoxyphenyl)-2-oxo-2,3-dihydro-1H-indol-3-yl]-pyrrolidin-2-dimethylcarboxamide], `COc1ccc(S(=O)(=O)N2C(=O)C(c3ccc(CN4CCCC4)cc3OC)(N3CCC[C@H]3C(=O)N(C)C)c3cc(Cl)ccc32)c(OC)c1` (stereo partly drawn) [Example 1, (S)-1-[5-Chloro-1-(2,4-dimethoxybenzenesulfonyl)-3-(2-methoxy-4-pyrrolidin-1-yl-methylphenyl)-2-oxo-2,3-dihydro-1H-indol-3-yl]-pyrrolidine-2-dimethylcarboxamide, trifluoroacetic acid salt] is lower in Ki: 1 to 10 nM for the first, < 1 nM for the second. The second binds more tightly here.

First: COc1ccc(S(=O)(=O)N2C(=O)C(c3cc(CN4CCCC4)ccc3OC)(N3CCC[C@H]3C(=O)N(C)C)c3cc(Cl)ccc32)c(OC)c1 (stereo partly drawn) [Example 25, (S)-1-[5-Chloro-1-(2,4-dimethoxybenzenesulfonyl)-3-(2-methoxy-5-pyrrolidin-1-yl-methylphenyl)-2-oxo-2,3-dihydro-1H-indol-3-yl]pyrrolidine-2-dimethylcarboxamide, trifluoroacetic acid salt]
Second: COc1ccc(S(=O)(=O)N2C(=O)C(c3ccc(CN4CCN(C)CC4)cc3OC)(N3CCC[C@H]3C(=O)N(C)C)c3cc(Cl)ccc32)c(OC)c1 (stereo partly drawn) [Example 9, (S)-1-{5-Chloro-1-(2,4-dimethoxybenzenesulfonyl)-3-[2-methoxy-4-(4-methyl-piperazin-1-ylmethyl)phenyl]-2-oxo-2,3-dihydro-1H-indol-3-yl}pyrrolidine-2-dimethylcarboxamide]
The Ki of the first is lower: < 1 nM for the first, 1 to 10 nM for the second.

First: COc1ccc(S(=O)(=O)N2C(=O)C(c3ccc(CN4CCCC4)cc3OC)(N(C)[C@@H](C)C(=O)N(C)C)c3cc(Cl)ccc32)c(OC)c1 (stereo partly drawn) [Example 14, (S)-2-{[5-Chloro-1-(2,4-dimethoxybenzenesulfonyl)-3-(2-methoxy-4-pyrrolidin-1-yl-methylphenyl)-2-oxo-2,3-dihydro-1H-indol-3-yl]methylamino}-N,N-dimethyl-propionamide]
Second: COc1ccc(S(=O)(=O)N2C(=O)C(c3ccc(CN4CCCC4)cc3)(N3C[C@H](O)C[C@H]3C(=O)N(C)C)c3cc(Cl)ccc32)c(OC)c1 (stereo partly drawn) [Example 6, (2S,4R)-1-[5-Chloro-1-(2,4-dimethoxybenzenesulfonyl)-2-oxo-3-(4-pyrrolidin-1-yl-methylphenyl)-2,3-dihydro-1H-indol-3-yl]-4-hydroxypyrrolidine-2-dimethylcarboxamide]
The Ki of the first is lower: 1 to 10 nM for the first, 10 to 100 nM for the second. The first binds more tightly here.

`COc1cc(CN(C)C)ccc1C1(N2CCC[C@H]2C(=O)N(C)C)C(=O)N(S(=O)(=O)c2ccc(F)cc2)c2ccc(Cl)cc21` (stereo partly drawn) [Example 73, (S)-1-[5-Chloro-3-(4-dimethylaminomethyl-2-methoxyphenyl)-1-(4-fluorobenzene-sulfonyl)-2-oxo-2,3-dihydro-1H-indol-3-yl]pyrrolidine-2-dimethylcarboxamide, trifluoroacetic acid salt] and `COc1ccc(CN(C)C)cc1C1(N2CCC[C@H]2C(=O)N(C)C)C(=O)N(S(=O)(=O)c2ccc(C#N)cc2)c2ccc(Cl)cc21` (stereo partly drawn) [Example 95, (S)-1-[5-Chloro-1-(4-cyanobenzenesulfonyl)-3-(5-dimethylaminomethyl-2-methoxy-phenyl)-2-oxo-2,3-dihydro-1H-indol-3-yl]pyrrolidine-2-dimethylcarboxamide] fall in the same range of Ki: 1 to 10 nM for the first, 1 to 10 nM for the second.

`CCNCc1ccc(C2(N3CCC[C@H]3C(=O)N(C)C)C(=O)N(S(=O)(=O)c3ccc(OC)cc3)c3ccc(Cl)cc32)c(OC)c1` (stereo partly drawn) [Example 93, (S)-1-[5-Chloro-3-(4-ethylaminomethyl-2-methoxyphenyl)-1-(4-methoxybenzene-sulfonyl)-2-oxo-2,3-dihydro-1H-indol-3-yl]pyrrolidine-2-dimethylcarboxamide, trifluoroacetic acid salt] and `CCCNCc1ccc(C2(N3CCC[C@H]3C(=O)N(C)C)C(=O)N(S(=O)(=O)c3ccc(OC)cc3)c3ccc(Cl)cc32)c(OC)c1` (stereo partly drawn) [Example 85, (S)-1-[5-Chloro-1-(4-methoxybenzenesulfonyl)-3-(2-methoxy-4-propylaminomethyl-phenyl)-2-oxo-2,3-dihydro-1H-indol-3-yl]pyrrolidine-2-dimethylcarboxamide, trifluoroacetic acid salt] cannot be ordered by Ki: < 1 nM for the first, < 1 nM for the second.

`COc1ccc(S(=O)(=O)N2C(=O)C(c3ccc(CN(C)C(C)C)cc3OC)(N3CCC[C@H]3C(=O)N(C)C)c3cc(Cl)ccc32)cc1` (stereo partly drawn) [Example 88, (S)-1-[5-Chloro-3-{4-[(isopropylmethylamino)methyl]-2-methoxyphenyl}-1-(4-methoxy-benzenesulfonyl)-2-oxo-2,3-dihydro-1H-indol-3-yl]pyrrolidine-2-dimethylcarboxamide, trifluoroacetic acid salt] and `COc1ccc(S(=O)(=O)N2C(=O)C(c3ccc(CNC(C)C)cc3OC)(N3CCC[C@H]3C(=O)N(C)C)c3cc(Cl)ccc32)cc1` (stereo partly drawn) [Example 94, (S)-1-[5-Chloro-3-[4-(isopropylaminomethyl)-2-methoxyphenyl]-1-(4-methoxybenzene-sulfonyl)-2-oxo-2,3-dihydro-1H-indol-3-yl]pyrrolidine-2-dimethylcarboxamide, trifluoroacetic acid salt] cannot be ordered by Ki: < 1 nM for the first, < 1 nM for the second.

Compared with `COc1ccc(CNC(C)C)cc1C1(N2CCC[C@H]2C(=O)N(C)C)C(=O)N(S(=O)(=O)c2ccc(C#N)cc2)c2ccc(Cl)cc21` (stereo partly drawn) [Example 101, (S)-1-[5-Chloro-1-(4-cyanobenzenesulfonyl)-3-(5-isopropylaminomethyl-2-methoxy-phenyl)-2-oxo-2,3-dihydro-1H-indol-3-yl]pyrrolidine-2-dimethylcarboxamide, trifluoroacetic acid salt], `COc1cc(CN2CCOCC2)ccc1C1(N2CCC[C@H]2C(=O)N(C)C)C(=O)N(S(=O)(=O)c2ccc(C#N)cc2)c2ccc(Cl)cc21` (stereo partly drawn) [Example 81, (S)-1-[5-Chloro-1-(4-cyanobenzenesulfonyl)-3-(2-methoxy-4-morpholin-4-ylmethyl-phenyl)-2-oxo-2,3-dihydro-1H-indol-3-yl]pyrrolidine-2-dimethylcarboxamide, trifluoroacetic acid salt] is higher in Ki: < 1 nM for the first, 1 to 10 nM for the second. The first binds more tightly here.

In the case of `COc1ccc(S(=O)(=O)N2C(=O)C(c3cc(CN4CCN(C)CC4)ccc3OC)(N3CCC[C@H]3C(=O)N(C)C)c3cc(Cl)ccc32)cc1` (stereo partly drawn) [Example 20, (S)-1-{5-Chloro-1-(4-methoxybenzenesulfonyl)-3-[2-methoxy-5-(4-methylpiperazin-1-yl-methyl)phenyl]-2-oxo-2,3-dihydro-1H-indol-3-yl}pyrrolidine-2-dimethylcarboxamide, trifluoroacetic acid salt], the Ki is reported as < 1 nM.
